From US20240025918A1, “KRAS G12D Inhibitors” (Jacobio Pharmaceuticals Co., Ltd, priority 2020, published 2024)

Experiments:
[1] = target: T1, GppNp-loaded HIS-KRAS(G12D, aa 1-169) and cRAF RBD (Homo sapiens, UniProt P01116, G12D); experiment: GTP-KRAS and cRAF interaction assay (HTRF); assay type: biochemical; settings: 2 hours at 25° C.
T1 construct: GppNp-loaded HIS-KRAS(G12D, aa 1-169)
Procedure: GppNp-loaded HIS-KRAS(G12D, aa 1-169) was pre-incubated with a compound in the presence of 200 μM GTP in a 384-well plate (Greiner) for 15 min, then cRAF RBD(GST tag, aa 50-132, CreativeBioMart), MAb Anti GST-d2 (Cisbio) and MAb Anti 6HIS-Tb cryptate Gold (Cisbio) were added to the assay wells (Final concentration: 2.0 nM GppNp-loaded HIS-KRAS(G12D), 100 μM GTP, 35 nM cRAF RBD, 1 μg/mL MAb Anti GST-d2, 52.5 ng/mL MAb Anti 6HIS-Tb cryptate Gold) and incubated for 2 hours at 25° C. Wells containing same percent of DMSO served as vehicle control, and wells without KRAS served as low control. HTRF signals were read on Tecan Spark multimode microplate reader and HTRF ratios were calculated under manufacturer's instructions. The percent of activation of compounds treated wells were normalized between vehicle control and low control (% Activation=(HTRF ratioCompound treated−HTRF ratioLow control)/(HTRF ratioVehicle control−HTRF ratioLow control)*100%). Then the data were analyzed by fitting a 4-parameter logistic model or calculating in Excel to calculate IC50 values.

AsPC-1 = experiment: Cell growth inhibition assay, AsPC-1 (CellTiter-Glo); assay type: cell-based; settings: Homo sapiens, ASPC1, 144 h; AsPC-1 cell viability, 6 days incubation
Procedure: AsPC-1 cultured in RPMI-1640 medium (Gibco) containing 10% fetal bovine serum (Gibco). Cells in culture medium were plated in 96-well plates at a concentration of 1000 cells/well (100 μL/well) and allowed to attach overnight.
(§1) The next day, compounds were diluted in culture medium and added to the plates. After 6 days incubation in a 37° C./5% CO2 cell incubator, the cell viability was detected by CellTiter-Glo® Luminescent Cell Viability Assay kit (Promega). Luminescent signals were read on Tecan Spark multimode microplate reader and analyzed using a 4-parameter logistic model to calculate IC50 values.

[2] = target: T2, GDP-loaded HIS-KRAS(G12D, aa 1-169) (Homo sapiens, UniProt P01116, G12D); experiment: SOS1 catalyzed nucleotide exchange assay (TR-FRET); assay type: biochemical; settings: 4 hours at 25° C.
T2 construct: GDP-loaded HIS-KRAS(G12D, aa 1-169)
T2 sequence (P01116 1-169 isoform P01116-2 G12D): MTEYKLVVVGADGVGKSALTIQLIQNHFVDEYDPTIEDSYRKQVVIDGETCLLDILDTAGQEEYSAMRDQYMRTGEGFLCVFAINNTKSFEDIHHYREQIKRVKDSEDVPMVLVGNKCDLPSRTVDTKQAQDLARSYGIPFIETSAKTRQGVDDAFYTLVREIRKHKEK
Procedure: GDP-loaded HIS-KRAS(G12D, aa 1-169) was pre-incubated with a compound in the presence of 10 nM GDPin a 384-well plate (Greiner) for 15 min, then purified SOS1 ExD(Flag tag, aa 564-1049), BODIPY™ FL GTP (Invitrogen) and MAb (monoclonal antibody) Anti 6HIS-Tb cryptate Gold (Cisbio) were added to the assay wells (Final concentration: 1.5 nM GDP-loaded HIS-KRAS(G12D), 5 nM GDP, 0.5 μM SOS1 ExD, 80 nM BODIPY™ FL GTP, 52.5 ng/mL MAb Anti 6HIS-Tb cryptate Gold) and incubated for 4 hours at 25° C. Wells containing same percent of DMSO served as vehicle control, and wells without KRAS served as low control. TR-FRET signals were read on Tecan Spark multimode microplate reader. The parameters were F486: Excitation 340 nm, Emission 486 nm, Lag time 100 μs, Integration time 200 μs; F515: Excitation 340 nm, Emission 515 nm, Lag time 100 μs, Integration time 200 μs. TR-FRET ratios for each individual wells were calculated by equation: TR-FRET ratio=(Signal F515/Signal F486)*10000. The percent of activation of compounds treated wells were normalized between vehicle control and low control (% Activation=(TR-FRET ratioCompound treated−TR-FRET ratioLow control)/(TR-FRET ratioVehicle control−TR-FRET ratioLow control)*100%). Then the data were analyzed by fitting a 4-parameter logistic model or calculating in Excel to calculate IC50 values.

[3] = tested on: AGS cells expressing KRAS G12D; experiment: Phospho-ERK1/2(THR202/TYR204) HTRF assay; assay type: cell-based; settings: Homo sapiens; Phospho-ERK1/2 in AGS cells, 2 hours incubation
Procedure: AGS cells expressing KRAS G12D were cultured in F12K medium (Gibco) containing 10% fetal bovine serum (Gibco). The AGS cells in culture medium were seeded in 96-well plates at a concentration of 40,000 cells/well and then put in a 37° C./5% CO2 cell incubator to incubate overnight. The next day, culture medium was removed and the compound diluted in assay medium (F12K, 0.1% FBS) was added in each well. After 2 hours incubation in a 37° C./5% CO2 cell incubator, the assay medium in 96-well plates was removed, then 50 μL of 1× blocking reagent-supplemented lysis buffer (Cisbio) was added and the plates were incubated at 25° C. for 45 min with shaking. 10 μL of cell lysates from the 96-well plates were transferred to a 384-well plate (Greiner) containing 2.5 μL/well HTRF® pre-mixed antibodies (Cisbio 64AERPEH). Incubate 4 hours at 25° C. and then read HTRF signals on Tecan Spark multimode microplate reader. The data were analyzed using a 4-parameter logistic model to calculate IC50 values.

AGS = experiment: Cell growth inhibition assay, AGS (CellTiter-Glo); assay type: cell-based; settings: Homo sapiens, 144 h; AGS cell viability, 6 days incubation
Procedure: AGS cultured in F12K medium (Gibco) containing 10% fetal bovine serum (Gibco). Cells in culture medium were plated in 96-well plates at a concentration of 500 cells/well (100 μL/well) and allowed to attach overnight.
as §1

T1 sequence (P01116 1-169 isoform P01116-2 G12D): as above

SMILES | IC50 [1] [µM] | IC50 (AsPC-1) [µM] | IC50 [2] [µM] | IC50 [3] [µM] | IC50 (AGS) [µM]
C#Cc1c(F)ccc2cc(O)cc(-c3ccc4c(N5CC6CCC(C5)N6)nc(OCC5(CN6C7CCC6COC7)CC5)nc4c3F)c12 [Compound 7] | 0.0272 | 0.0722 | 0.00627 | 0.00353 | 0.00566
C#Cc1cccc2cc(O)cc(-c3ccc4c(N5CC6CCC(C5)N6)nc(OCC5(CN6CC7CCC(C6)O7)CC5)nc4c3F)c12 [Compound 8] | 0.307 | 0.0553 | 0.0168 | 0.0212 | 0.0316
C#Cc1cccc2cc(O)cc(-c3ccc4c(N5CC6CCC(C5)N6)nc(OCC5(CN6CC7CC6CO7)CC5)nc4c3F)c12 (stereo not drawn) [Compound 9] | 0.062 | 0.138 | 0.00777 | 0.00259 | 0.0105
C#Cc1cccc2cc(O)cc(-c3ccc4c(N5CC6CCC(C5)N6)nc(OCC5(CN6C7CCC6COC7)CC5)nc4c3F)c12 [Compound 10] | 0.0773 | 0.0576 | 0.0121 | 0.00618 | 0.0111
C#Cc1cccc2cc(O)cc(-c3c(F)cc4c(N5CC6CCC(C5)N6)nc(OCC5(CN6CCC7(CCO7)CC6)CC5)nc4c3F)c12 [Compound 11] | 0.0866 | 0.214 | 0.0316 | 0.00949 | 0.0157
C#Cc1cccc2cc(O)cc(-c3c(F)cc4c(N5CC6CCC(C5)N6)nc(OCC5(CN6CCC7(CC6)COC7)CC5)nc4c3F)c12 [Compound 12] | 0.0808 | 0.0832 | 0.0142 | 0.00194 | 0.00369
C#Cc1cccc2cc(O)cc(-c3c(F)cc4c(N5CC6CCC(C5)N6)nc(OCC5(CN6CCC7(C6)CC7(F)F)CC5)nc4c3F)c12 (stereo not drawn) [Compound 14] | 0.0792 | 0.0265 | 0.00436 | 0.182 | 0.0107
C#Cc1cccc2cc(O)cc(-c3c(F)cc4c(N5CC6CCC(C5)N6)nc(OCC5(CN6CCc7cccnc7C6)CC5)nc4c3F)c12 [Compound 15] | 0.157 | 0.0973 | 0.00606 | 0.0689 | 0.0139
C#Cc1cccc2cc(O)cc(-c3c(F)cc4c(N5CC6CCC(C5)N6)nc(OCC5(CN6Cc7cccnc7C6)CC5)nc4c3F)c12 [Compound 17] | 0.273 | 0.158 | 0.00199 | 0.0563 | 0.0118
C#Cc1cccc2cc(O)cc(-c3c(F)cc4c(N5CC6CCC(C5)N6)nc(OCC5(CN6CC7(COC7)C6)CC5)nc4c3F)c12 [Compound 19] | 0.0669 | 0.71 | 0.00227 | 0.0198 | 0.0129
C#Cc1cccc2cc(O)cc(-c3c(F)cc4c(N5CC6CCC(C5)N6)nc(OCC5(CN6CC7(CCC7)C6)CC5)nc4c3F)c12 [Compound 20] | 0.0581 | 0.264 | 0.00133 | 0.0392 | 0.0233
C#Cc1cccc2cc(O)cc(-c3c(F)cc4c(N5CC6CCC(C5)N6)nc(OCC5(CN6CC(OC)C6)CC5)nc4c3F)c12 [Compound 21] | 0.0745 | 0.334 | 0.00194 | 0.0135 | 0.0163
C#Cc1cccc2cc(O)cc(-c3c(F)cc4c(N5CC6CCC(C5)N6)nc(OCC5(CN6CC7(CCOCC7)C6)CC5)nc4c3F)c12 [Compound 22] | 0.0402 | 0.413 | 0.00139 | 0.00695 | 0.0197
C#Cc1cccc2cc(O)cc(-c3c(F)cc4c(N5CC6CCC(C5)N6)nc(OCC5(CN6CC7COCC7C6)CC5)nc4c3F)c12 (stereo not drawn) [Compound 24] | 0.0252 | 0.036 | 0.00126 | 0.00248 | 0.00366
C#Cc1cccc2cc(O)cc(-c3c(F)cc4c(N5CC6CCC(C5)N6)nc(OCC5(CN6CC7CCCC7C6)CC5)nc4c3F)c12 (stereo not drawn) [Compound 25] | 0.051 | 0.0966 | 0.00148 | 0.0147 | 0.0132
C#Cc1cccc2cc(O)cc(-c3c(F)cc4c(N5CC6CCC(C5)N6)nc(OCC5(CN6CC(C)(OC)C6)CC5)nc4c3F)c12 [Compound 27] | 0.19 | 0.533 | 0.00961 | 0.0193 | 0.0293
C#Cc1cccc2cc(O)cc(-c3c(F)cc4c(N5CC6CCC(C5)N6)nc(OCC5(CN6CCC7(CC6)CC7)CC5)nc4c3F)c12 [Compound 28] | 0.0525 | 0.0986 | 0.00176 | 0.0262 | 0.00837
C#Cc1cccc2cc(O)cc(-c3ccc4c(N5CC6CCC(C5)N6)nc(OCC5(CN6CCC7(CC6)CC7)CC5)nc4c3F)c12 [Compound 30] | 0.133 | 0.0817 | 0.0286 | 0.0315 | 0.00977
C#Cc1cccc2cc(O)cc(-c3ccc4c(N5CC6CCC(C5)N6)nc(OCC5(CN6CC(OC)C6)CC5)nc4c3F)c12 [Compound 31] | 0.108 | 0.215 | 0.0232 | 0.0134 | 0.0262
C#Cc1cccc2cc(O)cc(-c3ccc4c(N5CC6CCC(C5)N6)nc(OCC5(CN6CC7CCCC7C6)CC5)nc4c3F)c12 (stereo not drawn) [Compound 32] | 0.0931 | 0.0671 | 0.0355 | 0.0348 | 0.00882
C#Cc1cccc2cc(O)cc(-c3ccc4c(N5CC6CCC(C5)N6)nc(OCC5(CN6CC(C)(OC)C6)CC5)nc4c3F)c12 [Compound 33] | 0.126 | 0.151 | 0.0316 | 0.0128 | 0.0153
C#Cc1cccc2cc(O)cc(-c3c(F)cc4c(N5CC6CCC(C5)N6)nc(OCC5(CN6CCC7(CCCCO7)C6)CC5)nc4c3F)c12 (stereo not drawn) [Compound 34] | 0.0826 | 0.208 | 0.00307 | 0.0389 | 0.0169
C#Cc1cccc2cc(O)cc(-c3c(F)cc4c(N5CC6CCC(C5)N6)nc(OCC5(CN6CCOCC67CCC7)CC5)nc4c3F)c12 [Compound 35] | 0.157 | 0.0596 | 0.00217 | 0.0202 | 0.00843
C#Cc1cccc2cc(O)cc(-c3c(F)cc4c(N5CC6CCC(C5)N6)nc(OCC5(CN6C[C@H]7C[C@@H]6CO7)CC5)nc4c3F)c12 [Compound 36] | 0.0351 | 0.0774 | 0.0021 | 0.00307 | 0.00871
